{"source": "patent US12070444B2", "about": "“Modulation of molecular markers using S-equol” (Board of Regents, The University of Texas System, priority 2020, dated 2024)", "key": {"B16": {"system": "B16", "assay": "B16 tumors in mice with subcutaneous S-equol (Example 6, present tense)", "assay_type": "in vivo, mouse", "conditions": "B16 cells, daily s.c. S-equol 20 or 60 mg/kg per day vs PBS", "protocol": "Further work in a preclinical animal model supports the notion of using S-equol to treat melanoma. In immunocompromised mouse experiments, using B16, a murine tumor cell line know to be useful to study human melanoma metastasis and solid tumor formation, growth of tumors is suppressed with S-equol treatment compared to control. 0.5×10^6 B16 cells are injected into normal BL mice. When the tumor masses reach 50 to 80 mm^3 (about one week after the inoculation), the mice are given daily subcutaneous injections of S-equol (20 or 60 mg/kg per day) or PBS as a vehicle control. Tumor development is followed by caliper measurements along two orthogonal axes: length (L) and width (W) and volume (V) is estimated by the formula V=[L×(W^2)]/2. Tumors harvested from mice are fixed in 10% neutral-buffered formalin, dehydrated, embedded in paraffin, and sectioned at 3 μm thickness. Representative tumor sections from vehicle control and S-equol-treated mice are tested for Ki-67 expression to assess cell proliferation, and for ERβ pY36. Statistical significance in the experiments is assessed by two-tailed Student's t test. In all assays, p<0.05 is considered statistically significant."}, "melanoma": {"system": "melanoma", "assay": "Pilot biomarker clinical study of S-equol in melanoma (Example 7, present tense)", "assay_type": "in vivo, human", "conditions": "melanoma patients, oral S-equol 50 mg twice daily 10-21 days", "protocol": "A pilot biomarker clinical study is performed in 20 subjects with documented melanoma to determine the effect of the ERβ agonist S-equol on Ki67 an indicator of tumor cell proliferation. Tumor cell proliferation is measured by immunohistological staining for Ki-67. Ki-67 is encoded by the gene MKI67 gene and is required to maintain individual mitotic chromosomes dispersed in the cytoplasm following nuclear envelope disassembly. Measuring the fraction of Ki-67-positive cells in a tumor is known to be a reliable parameter for assessing cancer patient prognosis. Subjects with TNBC are known to have very high levels of Ki67.\nPatients enrolled in the study receive a history, physical, laboratory assessment, radiological imaging, and diagnostic biopsies. Immunohistochemistry (IHC) of Ki67 (proliferation marker), total ERβ, and pY36-ERβ (phosphorylated ERβ), B7H1 (also known as PDL-1) and MIA and S100B are conducted using core needle biopsy tissue samples prior to treatment. Patients are given oral S-equol 50 mg, twice daily for approximately two weeks (10-21 days) prior to the scheduled oncologic surgeries or start of primary systemic therapy. […]\nA standard procedure for acquiring core biopsy is utilized for determining melanoma prior to enrollment. […] The tissue samples are sent for staining of total and pY36, ERβ and Ki67, and analyzed. […]"}}, "note": "Entries after “also recorded” stand apart in the source; their conditions may differ.", "data": [{"smiles": "Oc1ccc([C@H]2COc3cc(O)ccc3C2)cc1", "note": "[S-equol]", "values": [{"measurement": "growth of tumors compared to control", "setting": "B16", "value": "suppressed"}, {"measurement": "change in Ki67 pre- vs post-treatment (in words)", "setting": "melanoma", "value": "measurable decrease in Ki67; also recorded: measurable decline in Ki67"}]}]}
